In US6703418B2, “Appetite stimulation and induction of weight gain in patients suffering from symptomatic HIV infection” (Unimed Pharmaceuticals, Inc., priority 1991, dated 2004):

How the values were obtained:
[1] = Example I: ten symptomatic HIV patients treated with delta-9-tetrahydrocannabinol as dronabinol, weight change; type: in vivo, human
Method: Soft gelatin capsules were filled with delta-9-tetrahydrocannabinol in sesame oil (dronabinol). Capsules were filled with 2.5 mg delta-9-tetrahydrocannabinol per capsule or 5 mg delta-9-tetrahydrocannabinol per capsule.
Ten symptomatic HIV patients were treated with delta-9-tetrahydrocannabinol. […] The infectious complications which they had represent the spectrum of those usually seen in a symptomatic HIV-infected population.
Most of the patients had received or were on antiviral therapy, primarily zidovudine (azidothymidine). Two had previously received and one was receiving megesterol acetate as well. Patients received delta-9-tetrahydrocannabinol as dronabinol (delta-9-tetrahydrocannabinol in sesame oil in soft gelatin capsules), usually at a dose of 2.5 mg, for one to five months. Treatment continued for most of the patients at the time of this analysis. The dose varied. The patients were instructed to take medication up to four times daily as needed; many took it somewhat less often.
Initially, patients were losing a median of 0.93 kg/mo. On therapy, they gained 0.54 kg/mo. The median difference on versus pre-therapy was 1.92 kg/mo.

[2] = Example II: prospective dose-ranging study of dronabinol in patients with symptomatic HIV infection, weight change and side effects; type: in vivo, human
Method: In a prospective, dose-ranging study, 23 patients with symptomatic HIV infection were treated with dronabinol at a dose of 2.5 mg twice daily to 5.0 mg three times daily. Of these, 13 completed approximately one month on therapy.
At a dose which appears optimal, seven of eight patients completed one month treatment. […] Most of those patients who did experience side effects found them tolerable. […] The median rate of weight loss prior to therapy was 1.62 kg/mo; on therapy, the median weight gain was 1.56 kg/mo. The median improvement in the rate of weight change was 3.06 kg/mo, or approximately 1.5 lbs/wk.

[3] = oral; cancer chemotherapy patients; crossover; cited from earlier work
[4] = cancer chemotherapy patients; compared with prochlorperazine; cited from earlier work
[5] = children and adolescents 6-19 years of age; cited from earlier work
[6] = advanced cancer patients on chemotherapy, versus those not receiving it; cited from earlier work
[7] = cancer patients, open study; cited from earlier work

CCCCCc1cc(O)c2c(c1)OC(C)(C)[C@@H]1CCC(C)=C[C@@H]21 [delta-9-tetrahydrocannabinol]
number of patients who gained weight ([1]; of ten symptomatic HIV patients): Seven patients gained weight | number of patients with a decrease in weight loss ([1]; of ten symptomatic HIV patients, besides those who gained weight): two others had a decrease in weight loss | median difference in rate of weight change, on versus pre-therapy ([1]; ten symptomatic HIV patients, usually 2.5 mg oral, one to five months): 1.92 kg/mo | median weight gain on therapy ([1]; ten symptomatic HIV patients, usually 2.5 mg oral, up to four times daily as needed, one to five months, pre-therapy median loss 0.93 kg/mo): 0.54 kg/mo | number of patients who gained weight ([2]; all doses, 2.5 mg twice daily to 5.0 mg three times daily, of 13 patients completing about one month on therapy): seven gained weight | side effects ([2]; dose which appears optimal): most patients did not experience side effects | median improvement in the rate of weight change ([2]; dose which appears optimal, converted from kg/mo): approximately 1.5 lbs/wk | number of patients who gained weight ([2]; dose which appears optimal, of seven patients completing one month): five of the seven patients gained weight | median improvement in the rate of weight change ([2]; dose which appears optimal, on therapy versus prior to therapy): 3.06 kg/mo | median weight gain on therapy ([2]; dose which appears optimal, pre-therapy median loss 1.62 kg/mo): 1.56 kg/mo | subjects reporting an increased food intake [3]: 50% | reported hunger [4]: reported feeling more hungry than patients on prochlorperazine | appetite stimulating effect [5]: Results suggestive of an appetite stimulating effect | weight maintenance [6]: maintained their weight better | appetite [7]: appetite increases | rate of weight loss [7]: lessening of the rate of weight loss
